Data from US5639793A, “Mammalian DNA topoisomerase II inhibitor and method” (The University of North Carolina at Chapel Hill, priority 1995, dated 1997).
“Also recorded” adds a separate entry of the source. Like-named read-outs stand apart in the source and are kept apart here.

How the values were obtained:
[1] = tested on: mammalian DNA topoisomerase II; assay: P4 DNA unknotting assay, topoisomerase II inhibition in vitro; format: biochemical, HeLa (human); conditions: for Topoisomerase II activity on decreasing drug concentration (P4 DNA unknotting): 2-fold serial dilutions; for Potency relative to VP-16 (topoisomerase II inhibition): more potent than VP-16
Method: DNA topoisomerase II was purified as described (Kashiwada). Briefly, a 150 mM NaCl extract from Triton X-100-treated HeLa cell nuclei was obtained. Salt was dialyzed and the partially purified enzyme was loaded on a heparin-Sepahrose CL-6B column and batch eluted with a buffer containing increasing salt concentrations.
Enzyme activity was measured using the P4 DNA unknotting assay (Liu, 1981). P4 DNA isolated from bacteriophage P4 consists of monomeric DNA circles with their cohesive ends hydrogen-bonded and contains multiple topological knots. Such highly knotted P4 DNA can be converted to its simple circular form by mammalian DNA topoisomerase II, and can be used as a sensitive assay to detect topoisomerase II activity.
P4 DNA unknotting reactions by topoisomerase II were performed in the absence or presence of potential topoisomerase II inhibitors. […] Products from the […] reactions were run out on an agarose gel to determine the extent of P4 DNA unknotting and stained with ethidium bromide.
Topoisomerase II was purified from calf thymus by a known method (Kashiwada). P4 DNA was prepared as described (Liu, 1983). Agarose gel assays for P4 DNA unknotting were performed as follows. Reactions (20 microliters) containing 50 mM Tris-HCl (pH 7.5), 100 mM KCl, 10 mM magnesium chloride, 1 mM ATP, 0.5 mM dithiothreitol, 0.5 mM EDTA, bovine serum albumin (30 microgram/ml), 100 ng P4 DNA, one unit of HeLa DNA topoisomerase II, and varying concentrations of topoisomerase II inhibitors were incubated at 37° C. After 30 minutes, reactions were terminated by addition of a solution containing 10% SDS. The samples were electrophoresed through a 1% agarose gel in 90 mM Trisborate (pH 8.3)-2 mM EDTA buffer (Rowe).

[2] = tested on: human osteogenic sarcoma (HOS) cells; assay: Protein-linked DNA breaks in HOS cells (K-SDS precipitation); format: cell-based; conditions: for Induction of protein-linked DNA breaks: 30 minutes; for Induction of protein-linked DNA breaks in HOS cells: 20 micromolar, FIG. 9B; for Reversal of protein-linked DNA breaks after drug removal: an hour after removal
Method: Quantitation of protein-linked DNA breaks was performed according to a published procedure (Rowe). DNA in growing cells was labeled by adding methyl-^3 H-thymidine. […] Cells were lysed and protein-linked DNA complexes were precipitated by the K-SDS precipitiation method (Rowe).
(§1) A modified K-SDS precipitation assay was used to quantitate in vivo formation of protein-linked DNA breaks (Rowe). HOS cells were grown in Eagle's medium. The DNA in logarithmically growing cells (about 2×10^5 cells) was labelled by adding tritiated methyl-thymidine (specific activity: 40 Ci/mmol) into the medium to a final concentration of 0.5 microCurie per ml. After overnight incubation, cells were washed and incubated for another 2 hours at 37° C. The cells were then treated with various concentrations of drugs for 30 minutes. The cells were lysed with 1 ml prewarmed lysis solution containing 1.25% SDS, 5 mM EDTA (pH 8) salmon sperm DNA (0.4 mg/ml).
(§2) The lysate was transferred to a 1.5 ml Eppendorf tube and after syringing 8 times through a 22 G 11/2 gauge needle, 250 microliter of 325 mM KCl were added. The sample was cooled on ice for 10 minutes and centrifuged at 4° C. The pellet was resuspended in 10 mM Tris-HCl (pH 8)-100 mM KCl-1 mM EDTA and salmon sperm DNA (0.1 mg/ml) and placed at 65° C. for 10 minutes with occasional mixing. The suspension was cooled on ice for 10 minutes and recentrifuged. The pellet was washed again before resuspending in water (65° C.). The suspension was combined with 4 ml scintillation fluid and the radioactivity was determined.
(§3) Protein-linked DNA breaks assays were performed as described for Example 4 using HOS and HOS colR cells. Cells were treated with 20 micromolar […], TFC and TMBC.

[3] = background; cited from earlier work
HIV replication = conditions: background (Baum); cited from earlier work
[4] = tested on: human osteogenic sarcoma (HOS) cells; assay: HOS cell growth inhibition (antiproliferative activity); format: cell-based
Method: (§4) Additionally, baby hamster kidney (BHK) cell growth inhibition by these derivatives was investigated.
(§5) Cell growth inhibition assays were performed according to published procedures (Crumpton).
(§6) The HOS cell growth inhibition assays were done according to a published procedure (Crumpton). All cells were grown in Eagle's minimium essential medium supplemented with 10% fetal bovine serum. Flasks were seeded at a density of 1×10^3 cell/cm^2 for monolayer cultures or 2×10^4 /ml for suspension cultures. Suspension cultures were used immediately for drug addition after dilution to a suitable starting density, and, about 24 hours after seeding, the compounds to be tested were added to the monolayer cultures. […] Control flasks also contained 0.1% DMSO.
(§7) Colonies of about 50 or more cells were counted and the plating efficiency was calculated as the per cent cells that were able to form colonies (Goz).

[5] = tested on: BHK-B cells (vincristine-selected, expressing p170 glycoprotein); conditions: for BHK-B growth inhibition compared with BHK, in words: BHK-B versus BHK; for Export by the drug efflux pump: p170 glycoprotein, conclusion from BHK-B data; for EC50: read-out: BHK-B-EC50
Method: as §5
BHK-B cells are baby hamster kidney cells that have been selected with 0.05 microgram/ml vincristine and that express p170 glycoprotein. Sensitivity of BHK-B cells to TFC, TMBC and vincristine was investigated.
as §6, §7

[6] = tested on: HOS cells resistant to colchicine (HOS colR), expressing p170 glycoprotein; assay: HOS colR cell growth inhibition; format: cell-based, human; conditions: for EC50: HOS colR cells; for EC50 for HOS colR cells compared with HOS cells: HOS colR versus HOS not expressing p170
Method: as §5, §6, §7

HOS cells = assay: Plating efficiency / cytotoxicity in HOS cells; conditions: one-hour treatment, Table 1
Method: Plating efficiencies are indicative of a compound's cytotoxicity (Goz).
as §7

HOS colR cells = assay: Protein-linked DNA breaks in HOS colR cells; format: cell-based, human; conditions: 20 micromolar, FIG. 9B
Method: The amount of protein-linked DNA breaks caused by VP-16, TFC and TMBC were compared in HOS and HOS colR cells to determine whether […] glycoprotein expression would affect these drugs' ability to induce protein-linked DNA breaks and inhibit topoisomerase II activity.
as §1, §2, §3

[7] = tested on: BHK-Ve cells (BHK-B cells treated with vincristine in the presence of verapamil); assay: BHK-Ve cell growth inhibition; format: cell-based, hamster
Method: as §5
Verapamil inhibits drug binding to the p170 glycoprotein drug efflux pump.
as §6, §7

[8] = tested on: baby hamster kidney (BHK) cells; assay: BHK cell growth inhibition; format: cell-based
Method: as §4, §5, §6, §7

[9] = tested on: mammalian DNA topoisomerase II; conditions: D'Arpa; cited from earlier work
[10] = read-out: EC50, HOS cell replication
[11] = Table 2, read-out: HOS ColR EC50
[12] = 10-50 micromolar TFC, increasing concentrations TMBC

SMILES	Potency relative to VP-16 (topoisomerase II inhibition) [1]	EC50 ([4]; Table 1, read-out: HOS--EC50) [µM]	EC50 [4, 10] [µM]	BHK-B growth inhibition compared with BHK, in words [5]	Export by the drug efflux pump [5]	EC50 ([5]; BHK-B cells, Table 2) [µM]	EC50 [6, 11] [µM]	EC50 ([6]; read-out: EC50, HOS colR cells) [µM]	EC50 for HOS colR cells compared with HOS cells [6]	HOS--LD50 (HOS cells) [µM]	Induction of protein-linked DNA breaks in HOS cells [2]	Induction of protein-linked DNA breaks [2, 12]	Reversal of protein-linked DNA breaks after drug removal [2]	Induction of protein-linked DNA breaks in HOS colR cells (HOS colR cells)	EC50 ([7]; Table 2, read-out: BHK-Ve-EC50) [µM]	EC50 ([7]; read-out: EC50, BHK-Ve cells) [µM]	also measured
COc1cc2c(c(OC)c1OC)-c1ccc(OC)c(=O)cc1[C@@H](NC(C)=O)CC2 [Colchicine, colchicine, reference compound]																	Inhibition of topoisomerase II activity ([1]; concentrations as high as 200 micromolar): does not appear to inhibit topoisomerase II activity; Induction of protein-linked DNA breaks ([2]; colchicine 50 micromolar): did not induce protein-linked DNA breaks; Toxicity at therapeutic doses [3]: usually at toxic or nearly toxic doses; Inhibition of HIV replication (HIV replication): inhibitor of HIV replication
O=C(N[C@H]1CCc2cc(O)c(O)c(O)c2-c2ccc(O)c(=O)cc21)C(F)(F)F [TFC, N-trifluoroacetyl-1,2,3,10-tetrademethyldeactylcolchicine]	about 2 fold	28	28	inhibited by approximately similar concentrations	are not	82	26	26	remained virtually unchanged	14	can induce protein-linked DNA cleavage to a lesser extent	induces DNA breaks in a dose-dependent manner; also recorded: induce protein-linked DNA breaks in a dose-dependent fashion	within an hour all the protein-linked DNA breaks have been reversed	Neither protein-linked DNA cleavage by either TFC or TMBC appear to be affected by the expression of g170 glycoprotein	37	37	Topoisomerase II activity on decreasing drug concentration (P4 DNA unknotting) ([1]; 50 to 6.25 micromolar, FIG. 8 lanes 7-10): more striking increase of enzyme activity as the concentration of TFC is decreased; Protein-linked DNA breaks reversed within half an hour of drug removal ([2]; within half an hour after removal): approximately 90%
O=C(N[C@H]1CCc2cc(O)c(O)c(O)c2-c2ccc(O)c(=O)cc21)c1cc(O)c(O)c(O)c1 [TMBC, N-(3',4',5'-trihydroxybenzoyl)-1,2,3,10-tetrademethyldeacetylcolchicine]	~17 fold	21	21	inhibited by approximately similar concentrations	are not	13	28	28	remained virtually unchanged	18	can induce protein-linked DNA cleavage to a lesser extent	almost as effective as TFC for protein-linked DNA break induction; also recorded: induce protein-linked DNA breaks in a dose-dependent fashion	more slowly reversed than for TFC, so that after an hour's time after reversal some protein-linked DNA breaks still remain	Neither protein-linked DNA cleavage by either TFC or TMBC appear to be affected by the expression of g170 glycoprotein	24	24	EC50 ([8]; Table 1, read-out: BHK--EC50): 28 µM; EC50 ([8]; read-out: EC50, BHK growth inhibition): 28 µM
COc1cc([C@@H]2c3cc4c(cc3[C@@H](O[C@@H]3O[C@@H]5CO[C@@H](C)O[C@H]5[C@H](O)[C@H]3O)[C@H]3COC(=O)[C@H]23)OCO4)cc(OC)c1O [VP-16, etoposide, reference compound]											very effective to cause protein-linked DNA breaks			limited effect in causing protein-linked DNA breaks			Topoisomerase II activity on decreasing drug concentration (P4 DNA unknotting) ([1]; 100 to 12.5 micromolar, FIG. 8 lanes 3-6): increase of topoisomerase II activity as the concentration of VP-16 is decreased; Topoisomerase II inhibition, known [9]: known to inhibit topoisomerase II activity
CC[C@]1(O)C[C@H]2CN(CCc3c([nH]c4ccccc34)[C@@](C(=O)OC)(c3cc4c(cc3OC)N(C=O)[C@H]3[C@@](O)(C(=O)OC)[C@H](OC(C)=O)[C@]5(CC)C=CCN6CC[C@]43[C@@H]65)C2)C1 [Vincristine, reference compound]					exported by the drug efflux pump												BHK--EC50 ([8]; Table 1): 0.006 µg/mL; BHK-B-EC50 ([5]; BHK-B cells, Table 2): 0.34 µg/mL; Concentration necessary to inhibit BHK-B growth relative to BHK ([5]; hamster, bhk-b vs bhk cells): approximately 50 fold; BHK-Ve-EC50 / concentration necessary to inhibit BHK-Ve cell growth ([7]; Table 2): 2.7 µg/mL
